From patent EP4745137A1 (Gluetacs Therapeutics (Shanghai) Co., Ltd., priority 2023, dated 2025)

Experiments:
IKZF2 = target: T1, IKZF2 (Homo sapiens, UniProt Q96SW2+Q9UKS7); test: Western-blot assay of substrate protein degradation in hPBMCs, IKZF2; assay type: cell-based; conditions: 24 hours of compound treatment, compounds tested at 50 nM and 500 nM (concentration of the table not stated)
T1 construct: endogenous in cells; host or cells: hPBMCs (Milecell Biotechnologies)

GSPT1 = target: T2, GSPT1 (Homo sapiens, UniProt P15170+Q96SW2); test: Western-blot assay of substrate protein degradation in hPBMCs, GSPT1; assay type: cell-based; conditions: 24 hours of compound treatment, compounds tested at 50 nM and 500 nM (concentration of the table not stated)
T2 construct: endogenous in cells; host or cells: hPBMCs (Milecell Biotechnologies)
T2 sequence (P15170 whole entry): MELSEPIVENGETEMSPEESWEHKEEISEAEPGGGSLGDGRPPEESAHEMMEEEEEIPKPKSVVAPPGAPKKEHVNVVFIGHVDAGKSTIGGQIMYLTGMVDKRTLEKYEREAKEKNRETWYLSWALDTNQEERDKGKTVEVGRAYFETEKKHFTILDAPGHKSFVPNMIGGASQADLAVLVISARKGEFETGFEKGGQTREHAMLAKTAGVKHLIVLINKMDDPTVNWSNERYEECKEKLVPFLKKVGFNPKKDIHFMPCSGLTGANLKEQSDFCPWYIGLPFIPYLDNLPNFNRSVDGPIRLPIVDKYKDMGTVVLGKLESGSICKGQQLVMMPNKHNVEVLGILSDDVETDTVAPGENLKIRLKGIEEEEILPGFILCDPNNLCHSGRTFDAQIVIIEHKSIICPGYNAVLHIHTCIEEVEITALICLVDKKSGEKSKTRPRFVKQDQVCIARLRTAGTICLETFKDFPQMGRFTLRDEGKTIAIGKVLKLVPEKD
T2 sequence (Q96SW2 whole entry): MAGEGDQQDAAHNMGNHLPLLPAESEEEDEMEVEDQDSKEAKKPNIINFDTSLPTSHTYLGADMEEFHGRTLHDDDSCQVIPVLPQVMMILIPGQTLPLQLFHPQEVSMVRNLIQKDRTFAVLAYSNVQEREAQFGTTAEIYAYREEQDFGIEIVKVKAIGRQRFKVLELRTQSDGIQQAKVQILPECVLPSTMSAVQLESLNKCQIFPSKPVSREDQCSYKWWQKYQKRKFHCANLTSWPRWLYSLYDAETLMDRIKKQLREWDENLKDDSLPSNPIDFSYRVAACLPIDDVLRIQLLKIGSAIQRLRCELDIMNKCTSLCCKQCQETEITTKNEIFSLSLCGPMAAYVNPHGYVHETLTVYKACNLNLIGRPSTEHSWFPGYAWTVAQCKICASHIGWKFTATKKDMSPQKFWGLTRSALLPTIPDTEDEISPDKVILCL
T2 sequence (Q16531 whole entry partner): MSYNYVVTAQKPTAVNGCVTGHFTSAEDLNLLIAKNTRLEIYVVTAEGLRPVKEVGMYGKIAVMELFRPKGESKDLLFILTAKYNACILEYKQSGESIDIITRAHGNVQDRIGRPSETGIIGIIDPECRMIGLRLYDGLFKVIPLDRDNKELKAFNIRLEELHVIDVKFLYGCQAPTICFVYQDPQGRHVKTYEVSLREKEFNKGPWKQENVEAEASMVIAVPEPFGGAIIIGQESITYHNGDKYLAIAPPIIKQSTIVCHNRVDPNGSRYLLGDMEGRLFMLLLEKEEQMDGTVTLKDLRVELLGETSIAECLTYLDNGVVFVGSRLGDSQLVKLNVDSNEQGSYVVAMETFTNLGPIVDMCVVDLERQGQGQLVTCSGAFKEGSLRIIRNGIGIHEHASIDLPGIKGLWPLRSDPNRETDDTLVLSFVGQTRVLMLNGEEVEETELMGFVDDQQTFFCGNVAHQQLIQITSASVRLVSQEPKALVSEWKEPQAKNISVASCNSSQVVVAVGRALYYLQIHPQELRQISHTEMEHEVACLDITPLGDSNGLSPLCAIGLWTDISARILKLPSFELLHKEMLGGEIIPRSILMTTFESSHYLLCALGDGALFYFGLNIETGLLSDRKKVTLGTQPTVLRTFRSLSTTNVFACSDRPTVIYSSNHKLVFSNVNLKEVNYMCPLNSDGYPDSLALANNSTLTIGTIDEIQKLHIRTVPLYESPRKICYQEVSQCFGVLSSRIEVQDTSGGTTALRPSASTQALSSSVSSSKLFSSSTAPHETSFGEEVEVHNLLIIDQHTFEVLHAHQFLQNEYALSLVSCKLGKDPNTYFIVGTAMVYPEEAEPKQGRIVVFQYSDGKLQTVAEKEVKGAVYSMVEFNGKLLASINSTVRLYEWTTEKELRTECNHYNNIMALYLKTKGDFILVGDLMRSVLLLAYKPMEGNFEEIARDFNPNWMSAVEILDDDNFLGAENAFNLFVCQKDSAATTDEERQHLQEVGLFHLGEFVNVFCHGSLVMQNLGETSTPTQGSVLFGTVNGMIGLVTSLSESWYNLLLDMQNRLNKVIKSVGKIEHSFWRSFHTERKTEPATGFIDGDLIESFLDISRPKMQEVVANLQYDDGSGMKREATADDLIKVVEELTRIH

[1] = target: T3, human Cereblon WT GST-tagged protein (Homo sapiens, UniProt Q96SW2); test: CRBN-binding affinity by HTRF (CEREBLON BINDING kit); conditions: HTRF inhibitory activity, CEREBLON BINDING kit; read-out: HTRF IC50
T3 construct: purchased CISBIO 64BDCRBNPEH
T3 sequence (Q96SW2 whole entry): as the sequence (Q96SW2 whole entry) above

IKZF1 = target: T4, IKZF1 (Homo sapiens, UniProt Q13422+Q96SW2); test: Western-blot assay of substrate protein degradation in hPBMCs, IKZF1; assay type: cell-based; conditions: 24 hours of compound treatment, compounds tested at 50 nM and 500 nM (concentration of the table not stated)
T4 construct: endogenous in cells; host or cells: hPBMCs (Milecell Biotechnologies)
T4 sequence (Q13422 whole entry): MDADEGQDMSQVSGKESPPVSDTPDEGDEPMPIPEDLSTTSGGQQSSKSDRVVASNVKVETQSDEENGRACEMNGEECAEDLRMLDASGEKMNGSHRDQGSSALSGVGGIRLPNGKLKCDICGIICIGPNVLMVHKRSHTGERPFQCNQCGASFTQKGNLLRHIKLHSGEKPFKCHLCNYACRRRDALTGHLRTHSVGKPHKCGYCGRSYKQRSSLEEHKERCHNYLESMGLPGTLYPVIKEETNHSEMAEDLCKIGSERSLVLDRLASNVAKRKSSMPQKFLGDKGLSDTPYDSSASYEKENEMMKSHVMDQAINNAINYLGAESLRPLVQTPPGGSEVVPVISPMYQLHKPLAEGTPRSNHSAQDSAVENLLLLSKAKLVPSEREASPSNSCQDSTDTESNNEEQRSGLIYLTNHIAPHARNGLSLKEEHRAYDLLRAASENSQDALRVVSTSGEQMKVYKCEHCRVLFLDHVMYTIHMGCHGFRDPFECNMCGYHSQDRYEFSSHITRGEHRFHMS
T4 sequence (Q96SW2 whole entry): as the sequence (Q96SW2 whole entry) above
T4 sequence (Q16531 whole entry partner): as the sequence (Q16531 whole entry partner) above

CK1α = target: T5, CK1α (Homo sapiens, UniProt P48729+Q96SW2); test: Western-blot assay of substrate protein degradation in hPBMCs, CK1α; assay type: cell-based; conditions: 24 hours of compound treatment, compounds tested at 50 nM and 500 nM (concentration of the table not stated)
T5 construct: endogenous in cells; host or cells: hPBMCs (Milecell Biotechnologies)

WEE1 = target: T6, WEE1 (Homo sapiens, UniProt P30291+Q96SW2); test: Western-blot assay of substrate protein degradation in hPBMCs, WEE1; assay type: cell-based; conditions: 24 hours of compound treatment, compounds tested at 50 nM and 500 nM (concentration of the table not stated)
T6 construct: endogenous in cells; host or cells: hPBMCs (Milecell Biotechnologies)
T6 sequence (P30291 whole entry): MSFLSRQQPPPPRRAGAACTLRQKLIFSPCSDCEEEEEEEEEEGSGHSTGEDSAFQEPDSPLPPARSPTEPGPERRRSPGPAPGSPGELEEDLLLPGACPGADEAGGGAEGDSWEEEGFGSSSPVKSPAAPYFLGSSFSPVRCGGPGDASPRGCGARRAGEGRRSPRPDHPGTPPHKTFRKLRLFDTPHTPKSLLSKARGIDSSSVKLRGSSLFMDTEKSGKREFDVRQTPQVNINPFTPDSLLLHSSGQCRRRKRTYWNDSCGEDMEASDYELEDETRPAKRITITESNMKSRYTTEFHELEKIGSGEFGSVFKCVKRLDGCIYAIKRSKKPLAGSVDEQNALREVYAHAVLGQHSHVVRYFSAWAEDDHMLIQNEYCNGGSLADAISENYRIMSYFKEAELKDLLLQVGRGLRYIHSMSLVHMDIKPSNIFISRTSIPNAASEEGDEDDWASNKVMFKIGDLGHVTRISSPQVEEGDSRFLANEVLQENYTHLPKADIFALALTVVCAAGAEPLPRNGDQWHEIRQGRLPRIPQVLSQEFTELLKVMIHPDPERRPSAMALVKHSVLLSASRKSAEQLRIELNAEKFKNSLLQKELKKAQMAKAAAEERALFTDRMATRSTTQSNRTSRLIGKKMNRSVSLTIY
T6 sequence (Q96SW2 whole entry): as the sequence (Q96SW2 whole entry) above
T6 sequence (Q16531 whole entry partner): as the sequence (Q16531 whole entry partner) above

IKZF3 = target: T7, IKZF3 (Homo sapiens, UniProt Q96SW2+Q9UKT9); test: Western-blot assay of substrate protein degradation in hPBMCs, IKZF3; assay type: cell-based; conditions: 24 hours of compound treatment, compounds tested at 50 nM and 500 nM (concentration of the table not stated)
T7 construct: endogenous in cells; host or cells: hPBMCs (Milecell Biotechnologies)
T7 sequence (Q9UKT9 whole entry): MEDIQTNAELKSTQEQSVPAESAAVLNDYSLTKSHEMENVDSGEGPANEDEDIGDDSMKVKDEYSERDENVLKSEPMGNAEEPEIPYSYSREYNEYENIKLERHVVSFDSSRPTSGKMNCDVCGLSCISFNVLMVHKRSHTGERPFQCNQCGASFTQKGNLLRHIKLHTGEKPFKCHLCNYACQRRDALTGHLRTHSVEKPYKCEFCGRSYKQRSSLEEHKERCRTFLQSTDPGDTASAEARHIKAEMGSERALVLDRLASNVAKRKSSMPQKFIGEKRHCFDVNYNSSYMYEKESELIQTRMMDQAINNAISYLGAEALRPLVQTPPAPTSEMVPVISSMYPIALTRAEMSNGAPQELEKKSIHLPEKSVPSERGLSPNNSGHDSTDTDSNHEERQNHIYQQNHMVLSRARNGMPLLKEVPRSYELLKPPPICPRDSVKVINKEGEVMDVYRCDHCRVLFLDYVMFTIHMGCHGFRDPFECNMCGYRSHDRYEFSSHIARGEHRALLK
T7 sequence (Q96SW2 whole entry): as the sequence (Q96SW2 whole entry) above
T7 sequence (Q16531 whole entry partner): as the sequence (Q16531 whole entry partner) above

T1 sequence (Q9UKS7 whole entry): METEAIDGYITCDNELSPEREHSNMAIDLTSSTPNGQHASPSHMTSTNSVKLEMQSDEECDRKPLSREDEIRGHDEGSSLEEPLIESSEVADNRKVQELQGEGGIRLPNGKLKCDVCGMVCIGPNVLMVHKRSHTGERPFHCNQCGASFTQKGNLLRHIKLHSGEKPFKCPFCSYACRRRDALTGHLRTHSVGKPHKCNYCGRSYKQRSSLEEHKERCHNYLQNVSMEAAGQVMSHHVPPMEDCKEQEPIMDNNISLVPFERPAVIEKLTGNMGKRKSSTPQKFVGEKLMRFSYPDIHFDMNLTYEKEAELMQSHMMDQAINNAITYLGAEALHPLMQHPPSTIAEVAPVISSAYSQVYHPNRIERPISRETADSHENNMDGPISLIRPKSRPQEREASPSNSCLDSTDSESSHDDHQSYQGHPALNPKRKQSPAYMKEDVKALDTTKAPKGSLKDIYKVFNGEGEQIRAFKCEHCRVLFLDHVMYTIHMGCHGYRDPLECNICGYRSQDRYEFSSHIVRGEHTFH
T1 sequence (Q96SW2 whole entry): as the sequence (Q96SW2 whole entry) above
T1 sequence (Q16531 whole entry partner): as the sequence (Q16531 whole entry partner) above

SMILES	IKZF2 substrate protein remaining % (IKZF2)	GSPT1 substrate protein remaining % (GSPT1)	IC50 [1]	IKZF 1 substrate protein remaining % (IKZF1)	CK1a substrate protein remaining % (CK1α)	Weel substrate protein remaining % (WEE1)	IKZF3 substrate protein remaining % (IKZF3)
O=C1CCC(N2Cc3cc(CN4CCC(c5ncnc6sc(-c7ccccc7)cc56)CC4)ccc3C2=O)C(=O)N1 (stereo not shown) [GT-05159, 3-(1-oxo-5-((4-(6-phenylthieno[2,3-d]pyrimidin-4-yl)piperidin-1-yl)methyl)isoindolin-2-yl)piperidine-2,6-dione]	A (0% ≤ substrate protein remaining % ≤ 80%)	A (0% ≤ substrate protein remaining % ≤ 80%)	< 500 nM	A (0% ≤ substrate protein remaining % ≤ 80%)	B (80%< substrate protein remaining %≤ 100%)	B (80%< substrate protein remaining %≤ 100%)	A (0% ≤ substrate protein remaining % ≤ 80%)
O=C1CCC(N2Cc3cc(CN4CCN(c5ncnc6sc7c(c56)CCCC7)CC4)ccc3C2=O)C(=O)N1 (stereo not shown) [GT-05209, 3-(1-oxo-5-((4-(5,6,7,8-tetrahydrobenzo[4,5]thieno[2,3-d]pyrimidin-4-yl)piperazin-1-yl)methyl)isoindolin-2-yl)piperidine-2,6-dione]	A (0% ≤ substrate protein remaining % ≤ 80%)	B (80%< substrate protein remaining %≤ 100%)	< 500 nM	A (0% ≤ substrate protein remaining % ≤ 80%)	B (80%< substrate protein remaining %≤ 100%)	A (0% ≤ substrate protein remaining % ≤ 80%)	A (0% ≤ substrate protein remaining % ≤ 80%)
Cc1nc(C2CCN(Cc3ccc4c(c3)CN(C3CCC(=O)NC3=O)C4=O)CC2)c2c3c(sc2n1)CCC3 (stereo not shown) [GT-05210, 3-(5-((4-(2-methyl-6,7-dihydro-5H-cyclopenta[4,5]thieno[2,3-d]pyrimidin-4-yl)piperidin-1-yl)methyl)-1-oxoisoindolin-2-yl)piperidine-2,6-dione]	A (0% ≤ substrate protein remaining % ≤ 80%)	B (80%< substrate protein remaining %≤ 100%)	500 to 1000 nM	A (0% ≤ substrate protein remaining % ≤ 80%)	A (0% ≤ substrate protein remaining % ≤ 80%)	A (0% ≤ substrate protein remaining % ≤ 80%)	A (0% ≤ substrate protein remaining % ≤ 80%)
O=C1CCC(N2Cc3cc(CN4CCC(c5ncnc6sc7c(c56)CCCC7)CC4)ccc3C2=O)C(=O)N1 (stereo not shown) [GT-05265, 3-(1-oxo-5-((4-(5,6,7,8-tetrahydrobenzo[4,5]thieno[2,3-d]pyrimidin-4-yl)piperidin-1-yl)methyl)isoindolin-2-yl)piperidine-2,6-dione]	A (0% ≤ substrate protein remaining % ≤ 80%)	A (0% ≤ substrate protein remaining % ≤ 80%)	< 500 nM	A (0% ≤ substrate protein remaining % ≤ 80%)	A (0% ≤ substrate protein remaining % ≤ 80%)	B (80%< substrate protein remaining %≤ 100%)	A (0% ≤ substrate protein remaining % ≤ 80%)
